Measured values as given in ChEMBL document CHEMBL5149971, “Pyridones in drug discovery: Recent advances” (Bioorg Med Chem Lett, 2021).
Blank lines part the entries; values can stand above or below the molecule they belong to.

Assays:
rhinovirus B14 [1] = experiment: Antiviral activity against Human rhinovirus 14 infected in H1-HeLa cells assessed as reduction in viral infection measured after 2 days by XTT dye reduction method; format: functional, organism-based; settings: Rhinovirus B, 48 h
rhinovirus B14 [2] = experiment: Antiviral activity against Human rhinovirus 14 infected in H1-HeLa cells assessed as reduction in viral infection measured after 5 days by XTT dye reduction method; format: functional, organism-based; settings: Rhinovirus B, 120 h
[3] = Inhibition of MEK (unknown origin) in the presence of [gamma33P]ATP by scintillation counting method; parameters: species or system Homo sapiens
[4] = Oral bioavailability in hamster; format: ADME, organism-based, Mesocricetus auratus; settings: in vivo
Neutrophil elastase = target: T1, Neutrophil elastase (Homo sapiens, UniProt P08246); experiment: Inhibition of human neutrophil elastase using methoxysuccinyl-Ala-Ala-Pro-Val-pnitroanilide as substrate by spectrophotometric analysis
T1 sequence (P08246 whole entry): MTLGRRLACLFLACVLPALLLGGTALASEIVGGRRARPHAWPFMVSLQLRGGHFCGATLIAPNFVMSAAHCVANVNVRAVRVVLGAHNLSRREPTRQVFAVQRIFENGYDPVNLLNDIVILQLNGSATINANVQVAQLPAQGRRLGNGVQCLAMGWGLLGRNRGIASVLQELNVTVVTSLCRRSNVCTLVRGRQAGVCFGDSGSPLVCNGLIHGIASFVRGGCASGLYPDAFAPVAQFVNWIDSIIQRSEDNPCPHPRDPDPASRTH

IC50 [3]: 160 nM
Compound: CC(C)(C)c1nc2c3ccc(F)cc3c3c(=O)[nH]ccc3c2[nH]1

bioavailability [4]: 77%
Compound: CC(C)C(NC(=O)Cn1c(-c2ccc(F)cc2)ncc(N)c1=O)C(=O)C(F)(F)F (stereo not given)

The next lines start with the molecule.

Compound: CCOC(=O)/C=C/[C@H](CCC(N)=O)NC(=O)[C@H](Cc1ccccc1)NC(=O)[C@H](CC(C)C)NC(=O)OCc1ccccc1
EC50 (rhinovirus B14 [1]): 540 nM

Compound: CCOC(=O)/C=C/[C@H](C[C@@H]1CCNC1=O)NC(=O)[C@@H](CC(=O)[C@@H](NC(=O)c1cc(C)on1)C(C)C)Cc1ccc(F)cc1
EC50 (rhinovirus B14 [2]): 13 nM

Compound: CC(C)C(NC(=O)[C@@H]1CCCN1C(=O)[C@@H](NC(=O)c1ccc(C(=O)NS(=O)(=O)c2ccc(Cl)cc2)cc1)C(C)C)C(N)=O (stereo not given in full)
Ki (Neutrophil elastase): 0.5 nM
